# Key:
# [1] = tested on: murine melanoma (B16FO line); assay: Quantitative study of tumoral fixation and biodistribution of the radiolabeled compound (ex-vivo gamma counting after IV injection); assay type: in vivo, C57B16 mice; settings: for Ratio (g)/Al TU/kidneys / Ratio (g)/Al Tu/Liver / Ratio (g)/Al Tu/Lungs / Ratio (g)/Al Tu/blood / Total Elimination (% del ‘Al’) / Tumor (g/Al %) / Total Elimination: Indium-111-radiolabeled, IV
# Method: C57B16 mice bearing xenografts of murine melanoma (B16FO line) obtained by subcutaneous injection of 300 000 cells suspended in 100 μl of RPMI culture medium are injected subcutaneously in the back. The experiment is performed when the tumors are palpable. i.e. about 10 days […]. All the experiments (tumoral graft, injection and imaging) are carried out under isoflurane/oxygen (2.5%/2.5%) gas anesthesia.
# Injection of 50 to 100 microliters of the radiolabeled solution, with a maximum activity of 20 MBQ, by direct intravenous injection (caudal vein). The activity of the empty syringe after injection+compress is also measured for calculating the actual activity injected (actual Ac injected=Ac normalized full syringe—normalized activity (empty syringe and compress). Normalization consists in calculating the theoretical activity at one and the same time chosen as reference (for example the time of injection). The measurements are performed on a regularly calibrated activity meter for medical use (Medisystem©).
# Scintigraphic imaging is carried out using a dedicated small animal micro-5 imager SPECT-CT (BIOSCAN™). A planar scintigraphic image is obtained immediately after injection to verify absence of intracaudal stasis. If there is stasis, the mouse will be sacrificed at late times (24 or 48 h). Static scintigraphic images may be recorded at 2 h, 4 h, 24 h and 48 h (Imager micro-SPECT-CT BIOSCAN©).
# This is done ex-vivo by gamma counting of the various samples, using a gamma well counter for medical use, regularly calibrated for the isotopes used (Tc-99m and In-111). The animals are euthanized according to the protocols allowed by the animal ethics committee at 2 h, 4 h, 24 h or 48 h. The main organs are removed (brain, spleen, kidneys, lungs, heart, alimentary canal, liver) as well as a fragment of skin, muscle, bone and a blood sample and the whole tumor. Each sample is weighed and its gamma activity is counted in a sample-changing well counter for dedicated medical use, calibrated for the radioelements used. The animal's carcass is also weighed after removing the tail; these samples are incinerated and their gamma activity is also measured. The gamma activity of the samples containing all the collected urine and the feces is also measured. The activity of each sample is normalized (relative to the time of injection), and the ratio of the activity of each sample is calculated relative to the total activity injected (=the sum of all of the activities measured except that of the tail), expressed in % per gram of tissue, for calculating the ratio of the activity present in the tumor relative to the main organs (liver, kidneys, lungs and blood). The percentage of the activity eliminated is calculated.
# The mean values of all of the data for all of the mice whose data are exploitable are calculated, as well as after eliminating the animals with urinary excretion that is too quick (>50% at 2 h or 75% at 4 h, as well as the mice with tumors >2 g, as the existence of necrosis may distort the calculation of the ratio of fixation in the tumor).
# The biodistribution data of the various dendrimer compounds coupled to the IFC01102 ligand (also called amine R) and to a chelating agent are compared with those of the ligand alone coupled to the DOTA chelating agent (compound AP045) and radiolabeled with the same radioelement. 8.5 Results with Compound APAG9-1 (Radiolabeled with Tc99m) The radiochemical purity is above 95%, according to the chromatographic profile obtained as described above (example 5). 12 animals were injected. The average activity injected is 3.5±2.4 MBq. 2 animals were euthanized at 2 h, 4 at 24 h and 48 h post-injection. Examples of planar image immediately post-injection and 2 hours post-injection are illustrated in FIG. 3.
# [2] = tested on: murine melanoma (B16FO line); assay: as above; assay type: in vivo, C57B16 mice
# [3] = cited from earlier work
# [4] = 48 post-IV, animals with low urinary excretion or under hydric restriction
# [5] = 2 h post-iv, animals with low urinary excretion or under hydric restriction
# [6] = 4 h post-IV, animals with low urinary excretion or under hydric restriction
# [7] = 24 h post-IV, animals with low urinary excretion or under hydric restriction
compound,measurement,setting,value
"CCN(CC)CCNC(=O)c1cnc2cc(NC(=O)NCCOCCOCCNC(=O)CN3CCN(CC(=O)O)CCN(CC(=O)O)CCN(CC(=O)O)CC3)ccc2n1 [AP045, reference compound]",Ratio (g)/Al TU/kidneys,[1]; 48 post-IV,4.06E−01
same,Ratio (g)/Al Tu/Liver,[1]; 48 post-IV,7.14E−02
same,Ratio (g)/Al Tu/Lungs,[1]; 48 post-IV,2.97E+00
same,Ratio (g)/Al Tu/blood,[1]; 48 post-IV,9.95E+00
same,Total Elimination (% del ‘Al’),[1]; 48 post-IV,7.23E+01 % del ‘Al’
same,Tumor (g/Al %),[1]; 48 post-IV,1.19E+00 g/Al %
same,Ratio (g)/Al TU/kidneys,[1]; 4 h post-IV,2.45E−01
same,Ratio (g)/Al Tu/Liver,[1]; 4 h post-IV,4.97E−02
same,Ratio (g)/Al Tu/Lungs,[1]; 4 h post-IV,1.92E+00
same,Ratio (g)/Al Tu/blood,[1]; 4 h post-IV,1.12E+01
same,Tumor (g/Al %),[1]; 4 h post-IV,1.44E+00 g/Al %
same,tumor ratio relative to the liver,"[1]; 24 hours after IV injection, Indium-111",greater than 1
same,Ratio (g)/Al TU/kidneys,[1]; 24 h post-IV,2.93E−01
same,Ratio (g)/Al Tu/Liver,[1]; 24 h post-IV,1.31E+00
same,Ratio (g)/Al Tu/Lungs,[1]; 24 h post-IV,3.55E+00
same,Total Elimination (% del ‘Al’),[1]; 24 h post-IV,90.33 % del ‘Al’
same,Tumor (g/Al %),[1]; 24 h post-IV,1.77E+00 g/Al %
same,time at which the maximum tumoral uptake is observed,[1]; after IV injection of the radiolabeled compound,24 h
same,Total Elimination (% del ‘Al’),"[2]; 4 h post-IV, Indium-111-radiolabeled, IV",6.38E+01 % del ‘Al’
same,tumor/kidney ratio (in words),"[2]; Indium-111, activity in the kidneys still high",unfavorable
CCN(CC)CCNC(=O)c1cnc2cc(NC(=O)NCCOCCOCCNC(=O)CCOCCOCCOCCOCCNC(=O)CCN(CCNC(=O)CCN(CCC(=O)NCCN(CCC(=O)NCCOCCOCCOCCOCCC(=O)NCCOCCOCCNC(=O)Nc3ccc4nc(C(=O)NCCN(CC)CC)cnc4c3)CCC(=O)NCCOCCOCCOCCOCCC(=O)NCCOCCOCCNC(=O)Nc3ccc4nc(C(=O)NCCN(CC)CC)cnc4c3)Cc3cn(CCOCCOCCOCCOCCNC(=O)CN4CCN(CC(=O)O)CCN(CC(=O)O)CCN(CC(=O)O)CC4)nn3)CCC(=O)NCCOCCOCCOCCOCCC(=O)NCCOCCOCCNC(=O)Nc3ccc4nc(C(=O)NCCN(CC)CC)cnc4c3)ccc2n1 [AP070],Ratio (g)/Al TU/kidneys,[1]; [4],5.23E−01
same,Ratio (g)/Al Tu/Liver,[1]; [4],1.59E+00
same,Ratio (g)/Al Tu/Lungs,[1]; [4],6.28E+00
same,Ratio (g)/Al Tu/blood,[1]; [4],1.74E+01
same,Total Elimination,[1]; [4],8.4E+01
same,Tumor (g/Al %),[1]; [4],3.60E+00 g/Al %
same,Ratio (g)/Al TU/kidneys,[1]; [5],3.6E−01
same,Ratio (g)/Al Tu/Liver,[1]; [5],1.4E+00
same,Ratio (g)/Al Tu/Lungs,[1]; [5],2.1E+00
same,Ratio (g)/Al Tu/blood,[1]; [5],1.9E+00
same,Total Elimination,[1]; [5],4.8E+01
same,Tumor (g/Al %),[1]; [5],5.9E+00 g/Al %
same,tumoral uptake (in words),"[1]; 4 hours after IV injection, Indium-111",high
same,Ratio (g)/Al TU/kidneys,[1]; [6],3.96E−01
same,Ratio (g)/Al Tu/Liver,[1]; [6],1.28E+00
same,Ratio (g)/Al Tu/Lungs,[1]; [6],2.93E+00
same,Ratio (g)/Al Tu/blood,[1]; [6],3.07E+00
same,Total Elimination,[1]; [6],2.6E+01
same,Tumor (g/Al %),[1]; [6],1.27E+01 g/Al %
same,Ratio (g)/Al TU/kidneys,[1]; [7],2.58E−01
same,Ratio (g)/Al Tu/Liver,[1]; [7],4.06E−01
same,Ratio (g)/Al Tu/Lungs,[1]; [7],3.52E+00
same,Ratio (g)/Al Tu/blood,[1]; [7],2.00E+01
same,Total Elimination,[1]; [7],6.8E+01
same,Tumor (g/Al %),[1]; [7],3.69E+00 g/Al %
same,tumoral uptake compared with the ligand alone (AP045),[1]; APAG22-1: at two hours post-IV,far higher
same,tumor/liver ratio relative to the compound AP071,[1]; Indium-111,less favorable
same,tumoral uptake relative to the compound AP071,"[2]; notably at 4 hours, Indium-111",lower
O=C([O-])CN(CCN(CC(=O)[O-])CC(=O)O)CCN(CC(=O)[O-])CC(=O)O.[Gd+3] [Gd(III)-DTPA],relaxation rate r1,"[3]; 0.6 T, 20° C.",5400 M⁻¹ s⁻¹
Gadomer-17,r1,[3]; 1.5 T and 37° C.,15.2 mM⁻¹ s⁻¹

# Reference: patent US20160221992A1, “DENDRITIC COMPOUNDS INCLUDING A CHELATING, FLUOROCHROME OR RECOGNITION AGENT, COMPOSITIONS INCLUDING SAME AND USES THEREOF” (UNIVERSITE DE STRASBOURG, priority 2013, published 2016)
